In ChEMBL document CHEMBL1201862, “PubChem BioAssay data set” (2004):
Active and inactive are the calls of the source. How the calls were made is not given here.

Tests used:
Type in all cases: functional
[1] = target: Sphingosine 1-phosphate receptor 2 (Homo sapiens, UniProt O95136); test: Late-stage fluorescence-based dose-response cell-based counterscreen assay to identify agonists of the Sphingosine 1-Phosphate Receptor 3 (S1P3): Sphingosine 1-Phosphate Receptor 2 (S1P2) agonist assay.
[2] = target: T1, Sphingosine 1-phosphate receptor 4 (Homo sapiens, UniProt O95977); test: Late-stage fluorescence-based dose-response cell-based counterscreen assay to identify agonists of the Sphingosine 1-Phosphate Receptor 3 (S1P3): Sphingosine 1-Phosphate Receptor 4 (S1P4) agonist assay.
T1 sequence (O95977 whole entry): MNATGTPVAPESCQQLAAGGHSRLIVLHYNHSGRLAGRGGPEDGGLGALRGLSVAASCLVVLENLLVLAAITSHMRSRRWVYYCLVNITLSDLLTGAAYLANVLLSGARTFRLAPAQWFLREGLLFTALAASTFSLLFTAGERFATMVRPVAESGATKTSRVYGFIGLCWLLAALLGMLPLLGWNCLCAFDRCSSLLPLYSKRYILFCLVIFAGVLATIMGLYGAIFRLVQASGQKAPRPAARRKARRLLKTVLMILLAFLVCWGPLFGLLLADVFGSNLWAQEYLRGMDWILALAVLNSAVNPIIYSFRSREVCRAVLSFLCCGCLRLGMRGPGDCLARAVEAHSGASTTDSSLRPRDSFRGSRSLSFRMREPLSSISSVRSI

[3] = target: ALK tyrosine kinase receptor (Homo sapiens, UniProt Q9UM73);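 further: ALK tested as one member of a kinase panel screen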
[4] = target: Cell division cycle 7-related protein kinase (Homo sapiens, UniProt O00311);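 further: value obtained from a kinome-wide kinase panel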
Cell division cycle 7-related protein kinase, sequence (O00311 whole entry): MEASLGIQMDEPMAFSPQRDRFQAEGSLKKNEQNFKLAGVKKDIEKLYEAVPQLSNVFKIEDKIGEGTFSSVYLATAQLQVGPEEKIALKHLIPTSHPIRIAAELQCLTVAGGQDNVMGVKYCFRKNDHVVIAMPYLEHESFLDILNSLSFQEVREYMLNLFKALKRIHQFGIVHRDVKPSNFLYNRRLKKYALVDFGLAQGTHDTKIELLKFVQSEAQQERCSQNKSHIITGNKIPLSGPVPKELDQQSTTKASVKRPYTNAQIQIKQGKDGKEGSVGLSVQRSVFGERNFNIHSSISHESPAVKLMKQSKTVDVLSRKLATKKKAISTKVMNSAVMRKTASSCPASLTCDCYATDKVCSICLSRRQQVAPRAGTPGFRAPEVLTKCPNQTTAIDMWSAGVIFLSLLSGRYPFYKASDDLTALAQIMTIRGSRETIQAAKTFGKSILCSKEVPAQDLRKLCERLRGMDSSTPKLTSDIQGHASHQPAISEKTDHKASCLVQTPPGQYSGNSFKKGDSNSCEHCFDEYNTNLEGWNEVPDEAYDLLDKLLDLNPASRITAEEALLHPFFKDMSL

ALK tyrosine kinase receptor, sequence (Q9UM73 whole entry): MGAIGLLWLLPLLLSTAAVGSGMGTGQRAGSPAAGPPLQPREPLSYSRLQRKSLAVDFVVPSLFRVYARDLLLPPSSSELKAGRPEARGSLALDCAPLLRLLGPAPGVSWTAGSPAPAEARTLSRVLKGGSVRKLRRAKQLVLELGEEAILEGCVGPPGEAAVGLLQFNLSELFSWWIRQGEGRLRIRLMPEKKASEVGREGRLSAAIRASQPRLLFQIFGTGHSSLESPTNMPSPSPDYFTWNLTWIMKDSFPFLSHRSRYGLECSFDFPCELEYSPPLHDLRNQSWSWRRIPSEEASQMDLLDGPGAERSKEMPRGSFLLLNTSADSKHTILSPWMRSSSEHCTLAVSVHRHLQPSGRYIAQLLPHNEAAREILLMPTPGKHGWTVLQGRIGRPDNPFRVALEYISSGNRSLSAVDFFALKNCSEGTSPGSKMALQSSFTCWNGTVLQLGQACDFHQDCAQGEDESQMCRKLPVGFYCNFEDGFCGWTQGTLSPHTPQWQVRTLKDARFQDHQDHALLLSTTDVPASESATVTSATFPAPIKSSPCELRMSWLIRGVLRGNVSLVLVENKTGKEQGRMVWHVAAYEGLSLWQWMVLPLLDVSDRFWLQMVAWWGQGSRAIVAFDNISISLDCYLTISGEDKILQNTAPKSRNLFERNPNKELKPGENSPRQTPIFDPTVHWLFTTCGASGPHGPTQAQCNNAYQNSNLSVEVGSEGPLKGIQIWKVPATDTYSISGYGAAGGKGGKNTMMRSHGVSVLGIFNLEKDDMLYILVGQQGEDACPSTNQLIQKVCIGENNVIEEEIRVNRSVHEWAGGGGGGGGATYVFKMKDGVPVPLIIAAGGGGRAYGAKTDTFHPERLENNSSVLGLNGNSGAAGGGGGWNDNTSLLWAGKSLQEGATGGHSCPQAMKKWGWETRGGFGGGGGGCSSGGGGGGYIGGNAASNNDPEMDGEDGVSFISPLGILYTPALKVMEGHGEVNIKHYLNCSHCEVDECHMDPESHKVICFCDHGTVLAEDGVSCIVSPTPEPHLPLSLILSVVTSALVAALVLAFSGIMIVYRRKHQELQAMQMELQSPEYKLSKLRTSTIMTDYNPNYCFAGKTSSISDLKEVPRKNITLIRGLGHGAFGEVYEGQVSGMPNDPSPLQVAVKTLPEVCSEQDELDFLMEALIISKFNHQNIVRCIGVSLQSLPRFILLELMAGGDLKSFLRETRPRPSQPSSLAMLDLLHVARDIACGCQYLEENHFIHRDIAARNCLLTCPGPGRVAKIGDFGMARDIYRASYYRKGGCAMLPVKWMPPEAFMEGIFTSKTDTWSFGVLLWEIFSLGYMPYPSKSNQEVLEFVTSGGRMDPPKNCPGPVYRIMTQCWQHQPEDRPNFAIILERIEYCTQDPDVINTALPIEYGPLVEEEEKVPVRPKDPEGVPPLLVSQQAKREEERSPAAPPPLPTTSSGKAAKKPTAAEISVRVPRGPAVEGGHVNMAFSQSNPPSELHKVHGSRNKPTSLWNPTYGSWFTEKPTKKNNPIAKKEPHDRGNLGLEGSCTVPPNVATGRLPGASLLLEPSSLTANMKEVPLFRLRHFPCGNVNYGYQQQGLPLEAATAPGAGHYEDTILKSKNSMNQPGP
Sphingosine 1-phosphate receptor 2, sequence (O95136 whole entry): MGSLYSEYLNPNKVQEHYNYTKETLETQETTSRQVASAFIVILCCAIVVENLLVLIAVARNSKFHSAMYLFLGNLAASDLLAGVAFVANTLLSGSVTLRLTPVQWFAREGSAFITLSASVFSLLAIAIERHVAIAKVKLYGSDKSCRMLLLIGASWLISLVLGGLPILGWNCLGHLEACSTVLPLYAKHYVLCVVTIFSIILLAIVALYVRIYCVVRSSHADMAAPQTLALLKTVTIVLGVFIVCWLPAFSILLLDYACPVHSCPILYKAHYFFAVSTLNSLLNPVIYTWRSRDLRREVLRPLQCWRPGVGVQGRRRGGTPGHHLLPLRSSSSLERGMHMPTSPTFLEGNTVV

EC50 [1]	EC50 [2]	Ki [3]	Ki [4]	SMILES
> 50 µM (inactive)	> 50 µM (inactive)	–	–	Cc1cc(C(=O)N(C2CCCCC2)C2CCCCC2)no1
–	–	0.316 µM (active)	> 3.98 µM (inactive)	CS(=O)(=O)c1ccccc1Nc1nc(Nc2ccccc2)ncc1Cl
